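48-hour exposure; five concentrations; linearly interpolated endpoints. GI50 marks 50% less growth. TGI: total growth inhibition.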
Columns and labels:
Experiment in all cases: inhibition of tumour cell growth, NCI panel, 48 h
HCT-116 colon = tested on: HCT-116 colon
ACHN renal = tested on: ACHN renal
SF-268 CNS = tested on: SF-268 CNS
SK-MEL-2 melanoma = tested on: SK-MEL-2 melanoma
UACC-62 melanoma = tested on: UACC-62 melanoma
SNB-75 CNS = tested on: SNB-75 CNS
LOX IMVI melanoma = tested on: LOX IMVI melanoma
SNB-19 CNS = tested on: SNB-19 CNS
786-0 renal = tested on: 786-0 renal
CCRF-CEM leukemia = tested on: CCRF-CEM leukemia
MDA-MB-231 breast = tested on: MDA-MB-231 breast
M14 melanoma = tested on: M14 melanoma
HT29 colon = tested on: HT29 colon
SK-OV-3 ovarian = tested on: SK-OV-3 ovarian
HOP-92 NSCLC = tested on: HOP-92 NSCLC
A549 NSCLC = tested on: A549 NSCLC
NCI-H460 lung = tested on: NCI-H460 lung
NCI/ADR-RES ovarian = tested on: NCI/ADR-RES ovarian
A498 renal = tested on: A498 renal
SR leukemia = tested on: SR leukemia
HS 578T breast = tested on: HS 578T breast
PC-3 prostate = tested on: PC-3 prostate
OVCAR-5 ovarian = tested on: OVCAR-5 ovarian
HOP-62 NSCLC = tested on: HOP-62 NSCLC
KM12 colon = tested on: KM12 colon
SN12C renal = tested on: SN12C renal
SF-295 CNS = tested on: SF-295 CNS
U251 CNS = tested on: U251 CNS
IGROV1 ovarian = tested on: IGROV1 ovarian
OVCAR-8 ovarian = tested on: OVCAR-8 ovarian
NCI-H226 lung = tested on: NCI-H226 lung
OVCAR-3 ovarian = tested on: OVCAR-3 ovarian
EKVX NSCLC = tested on: EKVX NSCLC
HCC-2998 colon = tested on: HCC-2998 colon
MALME-3M melanoma = tested on: MALME-3M melanoma
K-562 leukemia = tested on: K-562 leukemia
BT-549 breast = tested on: BT-549 breast
MCF7 breast = tested on: MCF7 breast
MDA-MB-435 = tested on: MDA-MB-435
TK-10 renal = tested on: TK-10 renal
T-47D breast = tested on: T-47D breast
NCI-H23 lung = tested on: NCI-H23 lung
SF-539 CNS = tested on: SF-539 CNS
RXF 393 renal = tested on: RXF 393 renal
COLO 205 colon = tested on: COLO 205 colon
HL-60(TB) leukemia = tested on: HL-60(TB) leukemia
RPMI-8226 leukemia = tested on: RPMI-8226 leukemia
UACC-257 melanoma = tested on: UACC-257 melanoma
CAKI-1 renal = tested on: CAKI-1 renal
DU-145 prostate = tested on: DU-145 prostate
SK-MEL-5 melanoma = tested on: SK-MEL-5 melanoma
SW-620 colon = tested on: SW-620 colon
NCI-H522 lung = tested on: NCI-H522 lung
HCT-15 colon = tested on: HCT-15 colon
OVCAR-4 ovarian = tested on: OVCAR-4 ovarian
SK-MEL-28 melanoma = tested on: SK-MEL-28 melanoma
MOLT-4 leukemia = tested on: MOLT-4 leukemia
UO-31 renal = tested on: UO-31 renal

COc1cc(C2CC(c3ccc4c(c3)OCO4)=NN2C(C)=O)cc(OC)c1OC (centres undefined)
GI50 (HCT-116 colon): 0.491 µM | TGI (HCT-116 colon): > 100 µM | GI50 (ACHN renal): 3.66 µM | TGI (ACHN renal): > 100 µM | GI50 (SF-268 CNS): 6.42 µM | TGI (SF-268 CNS): > 100 µM | GI50 (SK-MEL-2 melanoma): > 100 µM | TGI (SK-MEL-2 melanoma): > 100 µM | GI50 (UACC-62 melanoma): 0.493 µM | TGI (UACC-62 melanoma): > 100 µM | GI50 (SNB-75 CNS): 0.398 µM | TGI (SNB-75 CNS): 3.5 µM | GI50 (LOX IMVI melanoma): 1.89 µM | TGI (LOX IMVI melanoma): > 100 µM | GI50 (SNB-19 CNS): 1.91 µM | TGI (SNB-19 CNS): > 100 µM | GI50 (786-0 renal): 3.65 µM | TGI (786-0 renal): > 100 µM | GI50 (CCRF-CEM leukemia): 0.79 µM | TGI (CCRF-CEM leukemia): > 27 µM | GI50 (MDA-MB-231 breast): 4.07 µM | TGI (MDA-MB-231 breast): > 100 µM | GI50 (M14 melanoma): 0.536 µM | TGI (M14 melanoma): > 39.7 µM | GI50 (HT29 colon): 0.378 µM | TGI (HT29 colon): > 100 µM | GI50 (SK-OV-3 ovarian): 0.972 µM | TGI (SK-OV-3 ovarian): > 65.8 µM | GI50 (HOP-92 NSCLC): > 100 µM | TGI (HOP-92 NSCLC): > 100 µM | GI50 (A549 NSCLC): 2.42 µM | TGI (A549 NSCLC): > 100 µM | GI50 (NCI-H460 lung): 0.398 µM | TGI (NCI-H460 lung): > 59.8 µM | GI50 (NCI/ADR-RES ovarian): 0.405 µM | GI50 (A498 renal): 0.296 µM | TGI (A498 renal): 4.75 µM | GI50 (SR leukemia): 0.33 µM | TGI (SR leukemia): > 37 µM | GI50 (HS 578T breast): 1.26 µM | TGI (HS 578T breast): > 74.1 µM | GI50 (PC-3 prostate): 4.39 µM | TGI (PC-3 prostate): > 100 µM | GI50 (OVCAR-5 ovarian): 4.28 µM | TGI (OVCAR-5 ovarian): > 100 µM | GI50 (HOP-62 NSCLC): 1.14 µM | TGI (HOP-62 NSCLC): > 100 µM | GI50 (KM12 colon): 0.422 µM | TGI (KM12 colon): 52.9 µM | GI50 (SN12C renal): 7.48 µM | TGI (SN12C renal): > 100 µM | GI50 (SF-295 CNS): 0.368 µM | TGI (SF-295 CNS): 4.51 µM | GI50 (U251 CNS): 0.899 µM | TGI (U251 CNS): > 100 µM | GI50 (IGROV1 ovarian): 1.19 µM | TGI (IGROV1 ovarian): 97.3 µM | GI50 (OVCAR-8 ovarian): 5.51 µM | TGI (OVCAR-8 ovarian): > 100 µM | GI50 (NCI-H226 lung): 13.5 µM | TGI (NCI-H226 lung): > 100 µM | GI50 (OVCAR-3 ovarian): 0.297 µM | TGI (OVCAR-3 ovarian): 0.808 µM | GI50 (EKVX NSCLC): 3.13 µM | TGI (EKVX NSCLC): > 100 µM | GI50 (HCC-2998 colon): 2.36 µM | TGI (HCC-2998 colon): 60 µM | GI50 (MALME-3M melanoma): 1.88 µM | TGI (MALME-3M melanoma): > 100 µM | GI50 (K-562 leukemia): 0.353 µM | TGI (K-562 leukemia): > 100 µM | GI50 (BT-549 breast): 6.82 µM | TGI (BT-549 breast): > 100 µM | GI50 (MCF7 breast): 0.352 µM | TGI (MCF7 breast): > 100 µM | GI50 (MDA-MB-435): 0.183 µM | TGI (MDA-MB-435): 0.674 µM | GI50 (TK-10 renal): 7.59 µM | TGI (TK-10 renal): > 100 µM | GI50 (T-47D breast): 1.44 µM | TGI (T-47D breast): > 64.8 µM | GI50 (NCI-H23 lung): 1.81 µM | TGI (NCI-H23 lung): > 100 µM | GI50 (SF-539 CNS): 0.592 µM | TGI (SF-539 CNS): 7.29 µM | GI50 (RXF 393 renal): 1.56 µM | TGI (RXF 393 renal): > 23.2 µM | GI50 (COLO 205 colon): 0.466 µM | TGI (COLO 205 colon): 2.6 µM | GI50 (HL-60(TB) leukemia): 0.316 µM | TGI (HL-60(TB) leukemia): 2.92 µM | GI50 (RPMI-8226 leukemia): 2.74 µM | TGI (RPMI-8226 leukemia): > 25.7 µM | GI50 (UACC-257 melanoma): > 35.2 µM | TGI (UACC-257 melanoma): > 100 µM | GI50 (CAKI-1 renal): 0.715 µM | TGI (CAKI-1 renal): > 100 µM | GI50 (DU-145 prostate): 1.06 µM | TGI (DU-145 prostate): > 21.4 µM | GI50 (SK-MEL-5 melanoma): 0.419 µM | TGI (SK-MEL-5 melanoma): 8.07 µM | GI50 (SW-620 colon): 0.426 µM | TGI (SW-620 colon): > 100 µM | GI50 (NCI-H522 lung): 0.382 µM | GI50 (HCT-15 colon): 0.584 µM | TGI (HCT-15 colon): > 100 µM | GI50 (OVCAR-4 ovarian): 5.45 µM | TGI (OVCAR-4 ovarian): > 100 µM | GI50 (SK-MEL-28 melanoma): 4.97 µM | TGI (SK-MEL-28 melanoma): > 100 µM | GI50 (MOLT-4 leukemia): 1.05 µM | TGI (MOLT-4 leukemia): > 50.5 µM | GI50 (UO-31 renal): 3.72 µM | TGI (UO-31 renal): > 86.8 µM
